Experimental data from US20070027201A1 (Wyeth, priority 2005, published 2007).

Target: T1, progesterone receptor (Homo sapiens, UniProt P06401)
T1 sequence (P06401 1-933): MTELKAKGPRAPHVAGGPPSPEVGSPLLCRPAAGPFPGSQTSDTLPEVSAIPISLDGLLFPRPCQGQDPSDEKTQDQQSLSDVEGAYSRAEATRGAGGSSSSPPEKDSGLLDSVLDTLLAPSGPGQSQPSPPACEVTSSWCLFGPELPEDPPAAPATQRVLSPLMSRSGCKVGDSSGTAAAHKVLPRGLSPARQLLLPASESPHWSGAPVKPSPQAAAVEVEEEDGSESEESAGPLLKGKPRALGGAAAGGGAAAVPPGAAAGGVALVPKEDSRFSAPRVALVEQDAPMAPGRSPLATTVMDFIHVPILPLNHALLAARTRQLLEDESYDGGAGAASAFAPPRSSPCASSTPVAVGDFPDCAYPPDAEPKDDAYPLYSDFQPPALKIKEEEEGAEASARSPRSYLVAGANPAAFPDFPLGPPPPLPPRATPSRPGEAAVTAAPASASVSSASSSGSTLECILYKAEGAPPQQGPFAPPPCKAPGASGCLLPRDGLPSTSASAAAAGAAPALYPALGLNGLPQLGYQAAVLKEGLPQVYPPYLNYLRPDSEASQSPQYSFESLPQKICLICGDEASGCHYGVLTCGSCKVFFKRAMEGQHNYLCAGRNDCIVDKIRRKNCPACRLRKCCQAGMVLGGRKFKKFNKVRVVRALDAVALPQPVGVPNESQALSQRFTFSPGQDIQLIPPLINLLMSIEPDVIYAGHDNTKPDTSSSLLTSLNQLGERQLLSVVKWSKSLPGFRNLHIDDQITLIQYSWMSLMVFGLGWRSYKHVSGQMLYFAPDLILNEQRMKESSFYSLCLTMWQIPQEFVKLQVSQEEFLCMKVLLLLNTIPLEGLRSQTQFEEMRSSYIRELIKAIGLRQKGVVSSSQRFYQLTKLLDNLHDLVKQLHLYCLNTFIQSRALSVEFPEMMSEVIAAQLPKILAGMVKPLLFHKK
Test: T47D alkaline phosphatase assay for progesterone receptor modulator (antagonist) activity
Type: cell-based
Set-up: endogenous in cells; host or cells: T47D cells
Settings: T47D cells; for IC50: antagonist mode in the presence of 1 nM progesterone, 24 hours
Method: An assay was performed to identify compounds having progesterone receptor modulator activity. This assay identifies progestins or antiprogestins by determining a compound's effect on alkaline phosphatase activity in T47D cells.
Culture medium: DMEM:F12 (1:1) (GIBCO, BRL) supplemented with 5% (v/v) charcoal stripped fetal bovine serum (not heat-inactivated), 100 U/mL penicillin, 100 μg/mL streptomycin, and 2 mM the GlutaMax® reagent (GIBCO, BRL).
Alkaline phosphatase assay buffer: • I. 0.1M Tris-HCl, pH 9.8, containing 0.2% the Triton™ X-100 reagent • II. 0.1M Tris-HCl, pH 9.8, containing 4 mM p-nitrophenyl phosphate (Sigma).
Frozen T47D cells are thawed in a 37° C. water bath and diluted to 280,000 cells/mL in culture medium. To each well in a 96-well plate (Falcon, Becton Dickinson Labware), 180 μL of diluted cell suspension is added.
Twenty μL of reference or test compounds diluted in the culture medium is then added to each well. When testing for progestin antagonist activity, reference antiprogestins or test compounds are added in the presence of 1 nM progesterone. The cells are incubated at 37° C. in a 5% CO2/humidified atmosphere for 24 hours.
For high throughput screening, one concentration of each compound will be tested at 0.3 μg/mL. Based on an average molecular weight of 300 g/mol for the compounds in the library, the concentration is approximately 1 μM. Subsequently, active compounds will be tested in dose response assays to determine EC50 and IC50.
At the end of treatment, the medium is removed from the plate. Fifty μL of assay buffer I is added to each well. The plates are shaken in a titer plate shaker for 15 minutes. Then 150 μL of assay buffer II is added to each well. Optical density measurements are taken at 5 minute intervals for 30 minutes at a test wavelength of 405 nm.
Analysis of dose-response data. For reference and test compounds, a dose response curve is generated for dose (x-axis) vs. the rate of enzyme reaction (slope) (y-axis). Square root-transformed data are used for analysis of variance and nonlinear dose response curve fitting for both agonist and antagonist modes. Huber weighting is used to down-weight the effects of outliers. EC50 or IC50 values are calculated from the retransformed values. The JMP® software (SAS Institute, Inc.) is used for both one-way analysis of variance and non-linear dose response analysis in both single dose and dose response studies.
Progesterone and trimegestone are reference progestins and RU486 is the reference antiprogestin. All reference compounds are run in full dose response curves and the EC50 and IC50 values are calculated.
In the table provided above, the IC50 values show the relative progesterone receptor antagonist activity in this assay. Lower numbers are indicative of higher potency, i.e., greater PR antagonist activity. Further, the assay has a standard deviation of about ±6.

Cn1c(C#N)ccc1-c1ccc(NS(C)(=O)=O)cc1F [Example 40, N-[4-(5-cyano-1-methyl-1H-pyrrol-2-yl)-3-fluorophenyl]methanesulfonamide]
Active Dose: 10 µM
IC50: 18.3 nM

CCS(=O)(=O)Nc1ccc(-c2ccc(C#N)n2C)c(F)c1 [Example 41, N-[4-(5-cyano-1-methyl-1H-pyrrol-2-yl)-3-fluorophenyl]ethanesulfonamide]
Active Dose: 10 µM
IC50: 3.8 nM

CCCS(=O)(=O)Nc1ccc(-c2ccc(C#N)n2C)c(F)c1 [Example 42, N-[4-(5-cyano-1-methyl-1H-pyrrol-2-yl)-3-fluorophenyl]propane-1-sulfonamide]
IC50: 3.5 nM

CCCCS(=O)(=O)Nc1ccc(-c2ccc(C#N)n2C)c(F)c1 [Example 43, N-[4-(5-cyano-1-methyl-1H-pyrrol-2-yl)-3-fluorophenyl]butane-1-sulfonamide]
IC50: 6.6 nM

CC(C)S(=O)(=O)Nc1ccc(-c2ccc(C#N)n2C)c(F)c1 [Example 44, N-[4-(5-cyano-1-methyl-1H-pyrrol-2-yl)-3-fluorophenyl]propane-2-sulfonamide]
Active Dose: 10 µM
IC50: 9.3 nM

Cn1c(C#N)ccc1-c1cc(F)c(NS(C)(=O)=O)cc1F [Example 46, N-[4-(5-cyano-1-methyl-1H-pyrrol-2-yl)-2,5-difluorophenyl]-methane-sulfonamide]
Active Dose: 10 µM
IC50: 39.8 nM

CCS(=O)(=O)Nc1cc(F)c(-c2ccc(C#N)n2C)cc1F [Example 47, N-[4-(5-cyano-1-methyl-1H-pyrrol-2-yl)-2,5-difluorophenyl]ethane-sulfonamide]
IC50: 22.1 nM

CCCCS(=O)(=O)Nc1cc(F)c(-c2ccc(C#N)n2C)cc1F [Example 49, N-[4-(5-cyano-1-methyl-1H-pyrrol-2-yl)-2,5-difluorophenyl]butane-1-sulfonamide]
IC50: 267 nM

CC(C)S(=O)(=O)Nc1cc(F)c(-c2ccc(C#N)n2C)cc1F [Example 50, N-[4-(5-cyano-1-methyl-1H-pyrrol-2-yl)-2,5-difluorophenyl]propane-2-sulfonamide]
IC50: 231 nM

Cn1c(C#N)ccc1-c1ccc(NS(C)(=O)=O)cc1C(F)(F)F [Example 52, N-[4-(5-cyano-1-methyl-1H-pyrrol-2-yl)-3-(trifluoromethyl)phenyl]methane-sulfonamide]
IC50: 13.4 nM

CCS(=O)(=O)Nc1ccc(-c2ccc(C#N)n2C)c(C(F)(F)F)c1 [Example 53, N-[4-(5-cyano-1-methyl-1H-pyrrol-2-yl)-3-(trifluoromethyl)phenyl]ethane-sulfonamide]
IC50: 10.2 nM

CCCS(=O)(=O)Nc1ccc(-c2ccc(C#N)n2C)c(C(F)(F)F)c1 [Example 54, N-[4-(5-cyano-1-methyl-1H-pyrrol-2-yl)-3-(trifluoromethyl)phenyl]propane-1-sulfonamide]
IC50: 9.4 nM

CCCCS(=O)(=O)Nc1ccc(-c2ccc(C#N)n2C)c(C(F)(F)F)c1 [Example 55, N-[4-(5-cyano-1-methyl-1H-pyrrol-2-yl)-3-(trifluoromethyl)phenyl]butane-1-sulfonamide]
IC50: 53.7 nM

CC(C)S(=O)(=O)Nc1ccc(-c2ccc(C#N)n2C)c(C(F)(F)F)c1 [Example 56, N-[4-(5-cyano-1-methyl-1H-pyrrol-2-yl)-3-(trifluoromethyl)phenyl]propane-2-sulfonamide]
IC50: 25.2 nM

Cn1c(C#N)ccc1-c1ccc(N2CCCS2(=O)=O)cc1 [Example 57, 5-[4-(1,1-dioxidoisothiazolidin-2-yl)phenyl]-1-methyl-1H-pyrrole-2-carbonitrile]
IC50: 180 nM

Cn1c(C#N)ccc1-c1ccc(NS(C)(=O)=O)c(OC(F)(F)F)c1 [Example 59, N-[4-(5-cyano-1-methyl-1H-pyrrol-2-yl)-2-(trifluoromethoxy)phenyl]methane-sulfonamide]
IC50: 32.2 nM

CCS(=O)(=O)Nc1ccc(-c2ccc(C#N)n2C)cc1OC(F)(F)F [Example 60, N-[4-(5-cyano-1-methyl-1H-pyrrol-2-yl)-2-(trifluoromethoxy)phenyl]ethane-sulfonamide]
IC50: 35.8 nM
